“Also recorded” adds a separate entry of the source. Numbered stars: 1 amine (or outer) side, 2 acyl side, 3 side chain; on linkers, the order of the positions; unused ones are H or OH. Bridge positions count the residues as written; N and C are the ends. Square brackets hold non-standard residues; d marks the D form. Peptide text beside a SMILES is read from it. I, II: the chains in the order shown. Actinocin(9to1) = Cc1c2oc3c(C)ccc(C(=O)[*:1])c3nc-2c(C(=O)[*:2])c(N)c1=O; NMeV = CN[C@H](C(=O)O)C(C)C; Sar = CNCC(=O)O
How the values were obtained:
eNOS = eNOS activity assay (conversion of [3H]-arginine to [3H]-citrulline) in treated human endothelial cells; format: cell-based; conditions: for effect on E2-stimulated eNOS activity, later phase (≥15 min) or 30 min / effect on E2-stimulated eNOS activity, initial phase (first 5-10 min): E2 10 nM, wortmannin 30 nM, genistein 50 μM, PD98059 5 μM; for effect on E2-stimulated eNOS activity, later phase (≥15 min) or 30 min: ICI 10 μM, actinomycin D 2 h pretreatment
Experimental: Fetal bovine serum was deprived of estrogen by charcoal-stripping. Once grown to confluence the cells were replated on 1.5% gelatin-coated flasks at 20000 cells/cm^2. […] Cell number was assessed by direct cell counting of adherent cells, after trypsin detachment, in a Neubauer hemocytometer (VWR Scientifics). The percentage of cells excluding Trypan Blue after staining with the compound was taken as a measure of cell viability.
Endothelial cells were grown to confluence on 55 cm^2 culture dishes, treated according to the indicated conditions, and harvested in ice-cold PBS containing 1 mM EDTA. The cell lysates were pelleted in a microfuge (2 minutes, 13000 rpm, 4° C.) and subsequently homogenized in a buffer containing 25 mM Tris-HCl, pH 7.4, 1 mM EDTA, 1 mM EGTA. eNOS activity was determined by measuring the conversion of [^3H]-arginine to [^3H]-citrulline. Rat cerebellum extracts, containing elevated amounts of neuronal NOS, were used as positive controls, while endothelial cell extracts incubated in the presence of the competitive eNOS inhibitor L-NAME (1 mM) served as negative controls.
Human and bovine aortic endothelial cells were harvested enzymatically with Type IA collagenase (1 mg/mL).

NO release = assay: Nitrite assay (NO accumulation from endothelial cells); format: cell-based, human; conditions: 30 min; E2/αE2 10 nM, insulin 100 nM, acetylcholine
Experimental: NO accumulation from serum-starved endothelial cells was determined by a modified nitrite assay using 2, 3 diaminonaphtalene as described previously.^33 Fluorescence of 1-(H)-naphtotriazole was measured with excitation and emission wavelengths of 365 and 450 nm, respectively. Standard curves were constructed with known amounts of sodium nitrite. Nonspecific fluorescence was determined in the presence of LNMA (3 mM).

PI3-kinase = PI3-kinase assay on p85 immunoprecipitates of endothelial cell lysates; format: cell-based, human; conditions: for stimulation of PI3-kinase activity: 20 min, E2/αE2 10 nM, insulin 100 nM
Experimental: PI3kinase activity in endothelial cell lysates was assayed using the borate thin layer chromatography method, as described.^34 Following a 6 h incubation in serum- and estrogen-deficient medium 199, endothelial cells were treated according to the indicated conditions, washed, and harvested in ice-cold lysis buffer (137 mM NaCl, 20 mM Tris-HCl, pH 7.4, 1 mM CaCl2, 1 mM Mg Cl2, 0.1 mM Na3VO4, 1% NP-40). After pelleting the cell debris, the supernatant was incubated for 1 hour at 4° C. with 5 μL of a rabbit antiserum directed against the p85 regulatory subunit of the PI3-kinase (Upstate Biotechnology, Lake Placid, N.Y.), and immunoprecipitated with the addition of 50 μL of a 1:1 slurry of protein A-agarose for 1 hour at 4° C. Following centrifugation, the immunoprecipitates were washed three times with lysis buffer, three times with 0.1 M Tris-HCl, pH 7.4, 5 mM LiCl, 0.1 mM Na3VO4, followed by two washes with 10 mM Tris-HCl, pH 7.4, 150 mM NaCl, 5 mM EDTA, 0.1 mM Na3VO4.
The immunoprecipitates were then mixed with 50 μL Tris-HCl, pH 7.4, 150 mM NaCl, 5 mM EDTA, 20 μg of phosphatidylinositol (Sigma, Saint Louis, Mo.), 10 μL 100 mM MgCl2 and 5 μL of a 0.88 mM ATP, 20 mM MgCl2 solution, containing 30 μCi of [γ-^32P]ATP (3000 Ci/mmol; NEN Life Science Products, Boston, Mass.). […] The phospholipids were extracted with 160 μL of chloroform/methanol (1:1, v/v). 50 μL of the organic phase, containing the labeled PI3-kinase products were separated by borate thin layer chromatography on glass-backed Silica Gel 60 plates (EM Separations, Gibbstown, N.J.) pretreated with a solution containing 25 mM trans-1,2-diaminocyclohexane-N,N,N′N′-tetraacetic acid (CDTA, Sigma, Saint Louis, Mo.), 66% (v/v) ethanol and 0.06 N NaOH, dried for 1 hour and then baked at 100° C. for 15 minutes. The chromatography was developed with a solution containing 37.5% (v/v) methanol, 30% (v/v) chloroform, 22.5% (v/v) pyridine (Sigma, Saint Louis, Mo.), 1.33% (v/v) formic acid, […] boric acid and 8.5 mM butylated hydroxytoluene (Sigma, Saint Louis, Mo.), briefly dried and exposed to autoradiography.

Akt/PKB [1] = assay: Immunoblotting of Akt phosphorylation (Thr 308, Ser 473); format: cell-based, human; conditions: E2/αE2 10 nM, insulin 100 nM, 20 min
Experimental: (§1) After the different treatments, serum-starved endothelial cells were rinsed once with ice-cold PBS before addition of the lysis buffer (100 mM Tris-HCl, pH 6.8, 4% SDS, 20% glycerol, 1 mM sodium orthovanadate, 1 mM NaF, and 1 mM phenylmethylsulfonylfluoride) to the dishes on an ice tray. The cell lysates were scraped, boiled, and centrifuged for 2 min at 13000 rpm. Total cell lysates (40 μg of protein) and low range molecular weight markers (BIO-RAD, Hercules, Calif.) were separated by SDS-polyacrylamide gel electrophoresis (12% running, 4% stacking), electrophoretically transferred to polyvinylidene fluoride membranes (Immobilon P, 0.45 μm pore size) and incubated overnight at 4° C. with blocking solution (5% skim milk in TBS—0.1% Tween 20). Affinity-purified rabbit antibodies (0.4 μg of IgG/ml) vs. Akt, (Ser 473) phospho-Akt or (Thr 308) phospho-Akt (New England BioLabs, Beverly, Mass.), Erk1/2, (Tyr 204) phospho-Erk-1/-2 (Calbiochem, San Diego, Calif.) were incubated with the membranes overnight at 4° C. in TBS—0.1% Tween 20 containing 5% BSA. The blots were washed three times with TBS—0.1% Tween 20 and then treated with donkey anti-rabbit antibody (1:4000 dilution) coupled to horseradish peroxidase. Immunodetection was accomplished using the enhanced chemoluminescence kit (ECL Kit, Amersham Corp.).

Akt/PKB [2] = assay: Akt kinase assay (immunoprecipitated Akt, GSK-3 peptide); format: cell-based, human; conditions: E2/αE2 10 nM, insulin 100 nM, 20 min
Experimental: Immunoprecipitated Akt kinase activity was assayed on endothelial cell lysates by using the Aktl/PKBα immunoprecipitation kinase assay kit (Upstate Biotechnology, Lake Placid, N.Y.). Endothelial cells were starved in phenol red-free199 medium with 0.4% estrogen-deprived FBS, treated, washed, and then harvested in ice-cold Buffer A (50 mM Tris-HCl, pH 7.5, 1 mM EDTA, 1 mM EGTA, […] Na3VO4, 0.1% (v/v) 2-mercaptoethanol, 1% Triton X-100, 50 mM sodium fluoride, 5 mM sodium pyrophosphate, 10 mM sodium glycerophosphate, 0.1 mM PMSF, 1 μg/mL of aprotinin, pepstatin, leupeptin and 1 μM microcystin). The cleared cell lysates were incubated for 1 hour at 4° C. with 4 μg/tube of anit-Akt1/PKBα PH domain immunoaffinity purified sheep IgG, after which 50 μL of a 1:1 (v/v) protein G-agarose slurry was added for an additional hour of incubation at 4° C. After centrifugation, the immunoprecipitates were washed three times with Buffer A containing 0.5 M NaCl, then two times with Buffer B (50 mM Tris-HCl, pH 7.5, 0.03% (w/v) Brij-35, 0.1 mM EGTA, 0.1% (v/v) 2-mercaptoethanol), and finally twice with 1×Assay Buffer (20 mM MOPS, pH 7.2, 25 mM β-glycerol phosphate, 5 mM EGTA, 1 mM Na3VO4, 1 mM DTT).
The immunoprecipitates were resuspended in 10 μL of ice-cold 1×Assay Buffer, and were sequentially added: 10 μL of 40 μM PKA inhibitor peptide ([…]-NH2—corresponding to residues 7-23 of human PKA inhibitor), 10 μL of Akt/PKB specific substrate peptide (100 μM) (RPRAATF—corresponding to the phosphorylation site of glycogen synthase kinase-3, specifically targeted by Akt/PKB, but not by other protein kinases such as Rsk-2 and p70 S6 kinase), and 10 μL of [γ-^32P]ATP stock solution (1×Assay Buffer with 500 μM ATP, 75 mM MgCl2, containing 1 μCi/μL [γ^32-P]ATP, 3000 Ci/mmol). The reaction was incubated at 37° C. for 30 minutes, after which 40 μL of the supernatant was mixed with 20 μL of 40% TCA and incubated for 5 minutes at room temperature. 40 μL of each final fraction were spotted onto the center of a 2 cm×2 cm P81 phosphocellulose paper. The assay squares were washed three times with 0.75% phosphoric acid for five minutes at room temperature, then once with acetone. The squares were then transferred to vials containing a liquid scintillation cocktail and read in a scintillation counter. Blank reaction for the detection of the unspecific background were performed by substituting the cell lysate with Buffer A at the beginning of the procedure, and aspecific endogenous phosphorylation of proteins in the sample extract was estimated by substituting in some samples 1×Assay Buffer for the Akt/PKB specific substrate peptide.

ER-α / PI3-kinase p85α = target: T1, ER-α / PI3-kinase p85α (Homo sapiens, UniProt P03372); assay: ER-α immunoprecipitation: co-precipitated p85α and associated PI3-kinase activity; format: cell-based; conditions: ICI 10 μM, wortmannin, tamoxifen 1 μM, PD 98059 5 μM, actinomycin D 5 μM
T1 construct: endogenous in cells; host or cells: human endothelial cells (HSVEC), anti-ERα immunoprecipitate
T1 sequence (P03372 1-595): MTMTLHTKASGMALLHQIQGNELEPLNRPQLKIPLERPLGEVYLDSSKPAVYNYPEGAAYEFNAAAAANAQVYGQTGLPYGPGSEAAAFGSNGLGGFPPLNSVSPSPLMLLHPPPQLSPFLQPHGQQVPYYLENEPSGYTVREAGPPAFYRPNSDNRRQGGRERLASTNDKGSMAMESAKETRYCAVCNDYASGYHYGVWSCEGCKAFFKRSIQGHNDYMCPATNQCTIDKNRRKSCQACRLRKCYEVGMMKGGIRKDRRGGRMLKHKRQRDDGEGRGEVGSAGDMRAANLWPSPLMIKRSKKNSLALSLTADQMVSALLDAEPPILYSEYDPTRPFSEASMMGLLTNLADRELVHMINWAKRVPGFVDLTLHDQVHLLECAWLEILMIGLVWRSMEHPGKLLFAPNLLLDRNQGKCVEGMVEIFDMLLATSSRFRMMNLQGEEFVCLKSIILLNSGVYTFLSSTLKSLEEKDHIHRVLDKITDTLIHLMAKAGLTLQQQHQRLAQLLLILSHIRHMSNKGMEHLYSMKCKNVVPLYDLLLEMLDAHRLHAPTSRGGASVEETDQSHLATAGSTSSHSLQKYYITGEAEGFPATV

ERK 1 and 2 = assay: Immunoblotting of ERK 1/2 phosphorylation; format: cell-based, human; conditions: E2 10 nM, PD 98059 5 μM
Experimental: as §1

stimulation of Akt kinase activity (words) (Akt/PKB [2])	stimulation of Akt kinase activity (words) (Akt/PKB [2]; listed as 17a-estradiol)	Structure (SMILES)	stimulation of eNOS activity by the substance alone (eNOS; E2/αE2 10 nM, insulin 100 nM, 30 min)	stimulation of NO release / production (nitrite accumulation) (NO release)	stimulation of PI3-kinase activity (PI3-kinase)	stimulation of PI3-kinase activity (PI3-kinase; listed as αE2)	Akt Ser 473 phosphorylation (Akt/PKB [1])	Akt threonine (Thr 308) phosphorylation (Akt/PKB [1])	effect on E2-stimulated eNOS activity, later phase (≥15 min) or 30 min (eNOS)	effect on E2-stimulated eNOS activity, later phase (≥15 min) or 30 min (eNOS; listed as PD 98059)	effect on E2-stimulated eNOS activity, initial phase (first 5-10 min) (eNOS)	effect on E2-stimulated eNOS activity, initial phase (first 5-10 min) (eNOS; listed as PD 98059)	effect on E2-induced PI3-kinase activation (PI3-kinase; E2 10 nM 20 min, ICI 10 μM, wortmannin 30 nM)	effect on E2-stimulated ER-α-associated PI3-kinase activity (ER-α / PI3-kinase p85α)	effect on E2-stimulated ERK-1 and -2 phosphorylation (ERK 1 and 2)	effect on E2-stimulated ERK-1 and -2 phosphorylation (ERK 1 and 2; listed as PD 98059)	effect on insulin-induced eNOS activity (eNOS; insulin 100 nM, 30 min)	effect on basal eNOS activity, substance alone (eNOS; no E2)
ineffective	small increase	C[C@]12CC[C@@H]3c4ccc(O)cc4CC[C@H]3[C@@H]1CC[C@H]2O [17α-estradiol]	no effect; also recorded: inability	very low effect; also recorded: inability	ineffective; also recorded: inability	lack	ineffective	ineffective; also recorded: minimal increase	–	–	–	–	–	–	–	–	–	–
–	–	COc1cccc(-c2cc(=O)c3ccccc3o2)c1N [PD98059]	–	–	–	–	–	–	only minimally affected; also recorded: not the later phase; also recorded: little or no inhibitory effect	do not block	able to block; also recorded: significantly blocked	blunt	only minimally affected	not	inhibited	abolished	–	–
–	–	Cc1c2oc3c(C)ccc(C(=O)N[C@@H]4C(=O)N[C@H](C(C)C)C(=O)N5CCC[C@H]5C(=O)N(C)CC(=O)N(C)[C@@H](C(C)C)C(=O)O[C@@H]4C)c3nc-2c(C(=O)N[C@@H]2C(=O)N[C@H](C(C)C)C(=O)N3CCC[C@H]3C(=O)N(C)CC(=O)N(C)[C@@H](C(C)C)C(=O)O[C@@H]2C)c(N)c1=O [actinomycin D] (I: T[dV]P[Sar][NMeV] / II: T[dV]P[Sar][NMeV]; ester I:1-I:C, II:1-II:C; linker I:N-II:N via Actinocin(9to1))	–	–	–	–	–	–	did not affect; also recorded: no effect	–	–	–	–	not	–	–	did not affect; also recorded: no inhibitory effect	nor had any effects by itself; also recorded: no effect

Reference: patent publication US6566081B1, “Methods of identifying a compound which modulates the non-transcriptional non-map-kinase induced effects of steroid hormones” (The Brigham and Women's Hospital, Inc., priority 1999, dated 2003)
